PMC9426601 (mBio, 2022)
Read-outs that look alike come from different tables or passages of the source.

Assays:
A(H3N2)-PA/I38T [1] = format: cell-based, influenza A(H3N2) virus
A(H1N1pdm09)-PA/E23K [2] = format: cell-based, influenza A(H1N1pdm09) virus
A(H3N2)-PA/I38T [3] = format: cell-based, influenza A(H3N2) virus; remark: listed apart in the source
A(H1N1pdm09)-PA/E23K [4] = format: cell-based, influenza A(H1N1pdm09) virus; remark: listed apart in the source
[5] = test system: A(H3N2) 80% WT: 20% PA/I38T; parameters: species or system ferrets (Mustela putorius furo); AUC (area under the curve of nasal wash viral titer): unit not given beside the values; details: in vivo
A(H3N2) 100% PA/I38T = test system: A(H3N2) 100% PA/I38T; parameters: species or system ferrets (Mustela putorius furo); AUC (area under the curve of nasal wash viral titer): unit not given beside the values; details: in vivo
[6] = test system: A(H1N1pdm09) 80% WT: 20% PA/E23K; parameters: species or system ferrets (Mustela putorius furo); AUC (area under the curve of nasal wash viral titer): unit not given beside the values; details: in vivo
[7] = test system: A(H1N1pdm09) 100% PA/E23K; parameters: species or system ferrets (Mustela putorius furo); AUC (area under the curve of nasal wash viral titer): unit not given beside the values; details: in vivo
[8] = target: NA activity of A(H3N2)-PA/I38T (Influenza A virus, UniProt P06818); format: biochemical
[9] = target: NA activity of A(H1N1pdm09)-PA/E23K (Influenza A virus, UniProt C7FH46); format: biochemical; details: read-out: IC50 (nM), neuraminidase inhibitor
[10] = read-out: Baloxavir EC50 (nM) FRA
[11] = read-out: Baloxavir EC50 (nM) YRA
[12] = read-out: Oseltamivir IC50 (nM) YRA

Structure (SMILES): O=C1c2c(O)c(=O)ccn2N([C@@H]2c3ccccc3SCc3c2ccc(F)c3F)[C@@H]2COCCN12 [Baloxavir, baloxavir acid]
- fold higher EC50 compared to the corresponding pretreatment virus, FRA (A(H3N2)-PA/I38T [1]): 77 fold
- EC50 (A(H3N2)-PA/I38T [1]; [10]): 46 ± 6.9 nM
- fold higher EC50 compared to the corresponding pretreatment virus, FRA (A(H1N1pdm09)-PA/E23K [2]): 17 fold
- EC50 (A(H1N1pdm09)-PA/E23K [2]; [10]): 20.8 ± 10.2 nM
- fold increase in EC50 compared to the corresponding WT, YRA (A(H3N2)-PA/I38T [3]): 100 fold
- EC50 (A(H3N2)-PA/I38T [3]; [11]): 40.1 ± 15.6 nM
- fold increase in EC50 compared to the corresponding WT, YRA (A(H1N1pdm09)-PA/E23K [4]): 9 fold
- EC50 (A(H1N1pdm09)-PA/E23K [4]; [11]): 2.6 ± 0.07 nM
- AUC (area under the curve of nasal wash viral titer) [5]: 18.6 ± 1.4
- Duration of viral shedding [5]: 4.7 ± 0.5 days
- AUC (area under the curve of nasal wash viral titer) (A(H3N2) 100% PA/I38T): 23.4 ± 1.4
- Duration of viral shedding (A(H3N2) 100% PA/I38T): 5.7 ± 0.5 days
- reduction in AUC relative to placebo (A(H3N2) 100% PA/I38T): 10%
- reduction in viral shedding relative to placebo (A(H3N2) 100% PA/I38T): 0.6 days
- AUC (area under the curve of nasal wash viral titer) [6]: 24.7 ± 2.4
- Duration of viral shedding [6]: 5.3 ± 0.5 days
- reduction in AUC relative to placebo [6]: 6%
- AUC (area under the curve of nasal wash viral titer) [7]: 28.6 ± 0.8
- Duration of viral shedding [7]: 6.3 ± 0.5 days
- rapid reduction in viral load in the first 24 h following treatment [7]: not observed
- reduction in AUC relative to placebo [7]: no significant difference

Structure (SMILES): CCOC(=O)C1=C[C@@H](OC(CC)CC)[C@H](NC(C)=O)[C@@H](N)C1 [Oseltamivir, oseltamivir]
- IC50 ([8]; read-out: Oseltamivir IC50 (nM) NIA): 0.15 ± 0.11 nM
- AUC (area under the curve of nasal wash viral titer) [5]: 19.3 ± 1.8
- AUC (area under the curve of nasal wash viral titer) [6]: 26.9 ± 1.7
- AUC greater than placebo [6]: 7%
- AUC (area under the curve of nasal wash viral titer) [7]: 26.2 ± 1.3

Structure (SMILES): CCC(CC)[C@H](NC(C)=O)[C@@H]1[C@H](O)[C@@H](C(=O)O)C[C@H]1N=C(N)N [Peramivir]
- IC50 ([8]; read-out: IC50 (nM), neuraminidase inhibitor): 0.12 ± 0.1 nM
- IC50 [9]: 0.17 ± 0.01 nM
